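Assay format: 96-well plates, 48-hour exposure. Here, GI50 denotes the concentration required for 50% inhibition of growth.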 The source made the active and inactive calls. Rule as the data show it: active = GI50 up to about 1.1 µM and inactive = higher.
Key:
Experiment in all cases: growth of human tumour cells (NCI), 48 h
[1] = system: UACC-257
[2] = system: U-251
[3] = system: SF-268
[4] = system: UO-31
[5] = system: MOLT-4
[6] = system: ACHN
[7] = system: NCI-H460
[8] = system: SK-MEL-2
[9] = system: DU-145
[10] = system: IGROV-1
[11] = system: HOP-62
[12] = system: MDA-MB-435
[13] = system: EKVX
[14] = system: A498
[15] = system: OVCAR-5
[16] = system: M14
[17] = system: RPMI-8226
[18] = system: 786-0
[19] = system: CCRF-CEM
[20] = system: PC-3

SMILES | GI50 [1] | GI50 [2] | GI50 [3] | GI50 [4] | GI50 [5] | GI50 [6] | GI50 [7] | GI50 [8] | GI50 [9] | GI50 [10] | GI50 [11] | GI50 [12] | GI50 [13] | GI50 [14] | GI50 [15] | GI50 [16] | GI50 [17] | GI50 [18] | GI50 [19] | GI50 [20]
NCC(=O)NC(CO)C(=O)O (stereo not given) | > 100 µM (inactive) | > 100 µM (inactive) | > 100 µM (inactive) | > 100 µM (inactive) | > 27.5 µM (inactive) | > 100 µM (inactive) | > 100 µM (inactive) | > 100 µM (inactive) | > 100 µM (inactive) | > 100 µM (inactive) | > 100 µM (inactive) | > 100 µM (inactive) | > 100 µM (inactive) | > 100 µM (inactive) | > 100 µM (inactive) | > 100 µM (inactive) | > 100 µM (inactive) | > 100 µM (inactive) | > 100 µM (inactive) | > 100 µM (inactive)
C=CCN1C(=O)/C(=C/c2ccc(C)cc2)NC1=S | 43.6 µM (inactive) | > 100 µM (inactive) | > 100 µM (inactive) | > 100 µM (inactive) | 27.1 µM (inactive) | > 100 µM (inactive) | > 100 µM (inactive) | > 100 µM (inactive) | > 100 µM (inactive) | > 100 µM (inactive) | > 100 µM (inactive) | 76.6 µM (inactive) | 37.8 µM (inactive) | 47 µM (inactive) | > 100 µM (inactive) | 87.7 µM (inactive) | 39.4 µM (inactive) | > 100 µM (inactive) | 33 µM (inactive) | > 100 µM (inactive)
C[C@]12CC[C@H]3[C@@H](CCC4=CC(=O)C=C[C@@]43OC(=O)C(F)(F)F)[C@@H]1CCC2=O | > 100 µM (inactive) | > 100 µM (inactive) | > 100 µM (inactive) | > 100 µM (inactive) | > 95.5 µM (inactive) | > 100 µM (inactive) | > 100 µM (inactive) | > 100 µM (inactive) | > 100 µM (inactive) | > 100 µM (inactive) | > 100 µM (inactive) | > 100 µM (inactive) | > 100 µM (inactive) | > 100 µM (inactive) | > 100 µM (inactive) | > 100 µM (inactive) | > 100 µM (inactive) | > 45.6 µM (inactive) | > 100 µM (inactive) | > 100 µM (inactive)
O=C1C(Br)=C(Br)C(=O)c2c(O)ccc(O)c21 | 5.43 µM (inactive) | 16.4 µM (inactive) | 16.9 µM (inactive) | 2.79 µM (inactive) | 0.0733 µM (active) | 2.48 µM (inactive) | 16.3 µM (inactive) | 26.2 µM (inactive) | 12.1 µM (inactive) | 14.7 µM (inactive) | 9.38 µM (inactive) | 3.07 µM (inactive) | 20.7 µM (inactive) | 21.7 µM (inactive) | 17 µM (inactive) | 1.85 µM (inactive) | 0.721 µM (active) | 1.56 µM (inactive) | 0.189 µM (active) | 15.4 µM (inactive)
COc1ccc(N(C(=O)OC(C)(C)C)[C@@H]2C(C)=C[C@H]([S@@+]([O-])c3ccc(C)cc3)[C@@H]3C(=O)N(C)C(=O)[C@@H]32)cc1 | 17.5 µM (inactive) | 14 µM (inactive) | 12.6 µM (inactive) | 15.1 µM (inactive) | 27.5 µM (inactive) | 20.5 µM (inactive) | 25.2 µM (inactive) | 18.5 µM (inactive) | 30.2 µM (inactive) | 10.7 µM (inactive) | 24.4 µM (inactive) | 15 µM (inactive) | 2.13 µM (inactive) | 10.1 µM (inactive) | 21.9 µM (inactive) | 32.2 µM (inactive) | 14.3 µM (inactive) | 18.1 µM (inactive) | 5.48 µM (inactive) | 23.9 µM (inactive)
CN(C)C=C1C(=O)c2c(Br)sc(Br)c2C1=O | 16.3 µM (inactive) | 19.1 µM (inactive) | 15.7 µM (inactive) | 29.6 µM (inactive) | 32.7 µM (inactive) | 29.6 µM (inactive) | 20.6 µM (inactive) | 14.1 µM (inactive) | 28.5 µM (inactive) | 18.7 µM (inactive) | 27.9 µM (inactive) | 14.1 µM (inactive) | 18.9 µM (inactive) | 21.3 µM (inactive) | 28.1 µM (inactive) | 18.7 µM (inactive) | 29.8 µM (inactive) | 33.9 µM (inactive) | 30.4 µM (inactive) | 20.7 µM (inactive)
CN(C)CCCNC(=O)CCNC(=O)c1cc(NC(=O)c2cc(NC(=O)c3cc(NC(=O)c4nc(NC(=O)CCCNC(=O)c5cc(NC(=O)c6cc(NC(=O)c7cc(NC(=O)c8nccn8C)cn7C)cn6C)cn5C)cn4C)cn3C)cn2C)cn1C | > 100 µM (inactive) | > 100 µM (inactive) | > 100 µM (inactive) | > 100 µM (inactive) | > 100 µM (inactive) | > 100 µM (inactive) | > 100 µM (inactive) | > 100 µM (inactive) | > 100 µM (inactive) | > 100 µM (inactive) | > 100 µM (inactive) | > 100 µM (inactive) | > 100 µM (inactive) | > 100 µM (inactive) | > 100 µM (inactive) | > 100 µM (inactive) | > 100 µM (inactive) | > 100 µM (inactive) | > 100 µM (inactive) | > 100 µM (inactive)
CN(C)c1ccc(/C=C(\NC(=O)c2ccccc2)C(=O)Nc2ccccc2C(=O)NCc2ccccc2)cc1 | 36.1 µM (inactive) | 46.8 µM (inactive) | > 100 µM (inactive) | > 100 µM (inactive) | 56.4 µM (inactive) | > 100 µM (inactive) | > 100 µM (inactive) | > 100 µM (inactive) | > 100 µM (inactive) | > 100 µM (inactive) | 31.4 µM (inactive) | > 100 µM (inactive) | > 100 µM (inactive) | > 100 µM (inactive) | > 100 µM (inactive) | 77.6 µM (inactive) | 67.5 µM (inactive) | > 100 µM (inactive) | 62.4 µM (inactive) | > 100 µM (inactive)
CC(C)(C)C#CI1OC(=O)c2ccccc21 | 6.05 µM (inactive) | 4.84 µM (inactive) | 4.34 µM (inactive) | 4.41 µM (inactive) | 1.02 µM (active) | 2.9 µM (inactive) | 4.62 µM (inactive) | 10.7 µM (inactive) | 6.08 µM (inactive) | 3.47 µM (inactive) | 10 µM (inactive) | 3.72 µM (inactive) | 4.89 µM (inactive) | 6.07 µM (inactive) | 7.67 µM (inactive) | 3.31 µM (inactive) | 1.81 µM (inactive) | 3.37 µM (inactive) | 1.37 µM (inactive) | 6.31 µM (inactive)
COC(=O)C(NC(=O)CNC(=O)CSc1nnc(COc2ccc(Cl)cc2)n1-c1ccccc1)C(C)C (stereo not given) | 18 µM (inactive) | 18.3 µM (inactive) | 21.3 µM (inactive) | 17.8 µM (inactive) | 22.3 µM (inactive) | 18 µM (inactive) | 18.8 µM (inactive) | 20.8 µM (inactive) | 18.8 µM (inactive) | 18.8 µM (inactive) | 26.5 µM (inactive) | 21.2 µM (inactive) | 35.9 µM (inactive) | 21.6 µM (inactive) | 18.2 µM (inactive) | 18.7 µM (inactive) | 20.4 µM (inactive) | 18.4 µM (inactive) | 21.7 µM (inactive) | 17.9 µM (inactive)
CC(C)(CN1CCCCC1)C(/C=C/c1ccc(Cl)c(Cl)c1)=N\NC(=O)N/N=C(/C=C/c1ccc(Cl)c(Cl)c1)C(C)(C)CN1CCCCC1 | 1.63 µM (inactive) | 1.69 µM (inactive) | 1.57 µM (inactive) | 4.14 µM (inactive) | 2.62 µM (inactive) | 1.89 µM (inactive) | 1.35 µM (inactive) | > 10 µM (inactive) | 1.85 µM (inactive) | 1.77 µM (inactive) | 1.87 µM (inactive) | 1.31 µM (inactive) | 1.64 µM (inactive) | 1.72 µM (inactive) | 1.59 µM (inactive) | 0.385 µM (active) | 1.42 µM (inactive) | 1.48 µM (inactive) | 1.76 µM (inactive) | > 10 µM (inactive)
CC(O)C1(CNc2cc(Cl)nc(N)n2)CCCC1 (stereo not given) | > 100 µM (inactive) | > 100 µM (inactive) | > 100 µM (inactive) | > 100 µM (inactive) | > 100 µM (inactive) | > 100 µM (inactive) | > 100 µM (inactive) | > 100 µM (inactive) | > 100 µM (inactive) | > 100 µM (inactive) | > 100 µM (inactive) | > 100 µM (inactive) | > 100 µM (inactive) | > 100 µM (inactive) | > 100 µM (inactive) | > 100 µM (inactive) | > 100 µM (inactive) | > 100 µM (inactive) | > 100 µM (inactive) | > 100 µM (inactive)
Oc1c(CN2CCOCC2)ccc2cccnc12 | > 10 µM (inactive) | > 10 µM (inactive) | > 10 µM (inactive) | 8.38 µM (inactive) | 4.11 µM (inactive) | > 10 µM (inactive) | 4.63 µM (inactive) | > 10 µM (inactive) | > 10 µM (inactive) | > 10 µM (inactive) | > 10 µM (inactive) | > 10 µM (inactive) | > 10 µM (inactive) | > 10 µM (inactive) | > 10 µM (inactive) | > 10 µM (inactive) | > 10 µM (inactive) | > 10 µM (inactive) | 2.54 µM (inactive) | > 10 µM (inactive)

Reference: ChEMBL document CHEMBL1201862, “PubChem BioAssay data set” (2004)
